Patent US20210277003A1, “OGA INHIBITOR COMPOUNDS” (Janssen Pharmaceutica NV, priority 2018, published 2021)

Tests used:
[1] = target: T1, recombinant human Meningioma Expressed Antigen 5 (MGEA5), also referred to as O-GlcNAcase (OGA) (Homo sapiens, UniProt O60502); test: OGA biochemical assay: inhibition of hydrolysis of fluorescein mono-ß-D-N-Acetyl-Glucosamine (FM-GlcNAc), fluorescence readout; conditions: FM-GlcNAc substrate; for Emax: read-out: Enzymatic Emax (%); for IC50: read-out: Enzymatic hOGA, pIC50 (converted)
T1 construct: Full length OGA enzyme was purchased at OnGene (cat #TP322411); purchased OnGene (so in the source)
T1 sequence (O60502 1-916): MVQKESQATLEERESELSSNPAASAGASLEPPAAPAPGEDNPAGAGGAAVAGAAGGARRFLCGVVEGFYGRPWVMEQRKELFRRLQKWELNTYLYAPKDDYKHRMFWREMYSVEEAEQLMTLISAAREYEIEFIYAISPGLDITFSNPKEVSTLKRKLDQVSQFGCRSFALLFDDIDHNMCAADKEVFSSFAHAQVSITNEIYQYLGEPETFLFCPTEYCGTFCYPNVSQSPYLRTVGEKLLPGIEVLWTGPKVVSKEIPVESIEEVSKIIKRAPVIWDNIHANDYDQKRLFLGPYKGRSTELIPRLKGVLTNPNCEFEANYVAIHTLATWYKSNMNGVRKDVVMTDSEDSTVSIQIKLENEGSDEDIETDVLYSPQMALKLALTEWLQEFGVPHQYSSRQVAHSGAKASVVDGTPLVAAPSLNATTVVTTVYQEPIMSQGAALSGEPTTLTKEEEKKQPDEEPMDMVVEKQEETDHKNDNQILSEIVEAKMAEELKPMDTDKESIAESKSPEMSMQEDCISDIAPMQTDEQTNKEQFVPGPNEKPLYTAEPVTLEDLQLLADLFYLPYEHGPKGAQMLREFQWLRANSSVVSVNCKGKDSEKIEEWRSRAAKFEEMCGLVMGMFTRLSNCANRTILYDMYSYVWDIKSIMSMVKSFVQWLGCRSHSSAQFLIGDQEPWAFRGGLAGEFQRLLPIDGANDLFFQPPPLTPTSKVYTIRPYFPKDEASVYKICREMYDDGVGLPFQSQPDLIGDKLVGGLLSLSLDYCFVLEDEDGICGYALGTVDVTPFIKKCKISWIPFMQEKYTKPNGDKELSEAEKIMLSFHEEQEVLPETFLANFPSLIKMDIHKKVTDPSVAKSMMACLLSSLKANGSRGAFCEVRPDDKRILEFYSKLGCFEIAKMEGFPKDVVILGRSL
Method in brief: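 Full-length recombinant human OGA (2 nM) was pre-incubated with compound for 60 min, then reacted with 100 uM FM-GlcNAc for 6 h at room temperature in 200 mM citrate/phosphate pH 7.2 with 0.005% Tween-20. Reactions were stopped with pH 11.0 carbonate and fluorescein read at 485/538 nm. IC50 and Hill coefficient came from curve fitting.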

[2] = tested on: OGA in HEK293 cells inducible for P301L mutant human Tau (isoform 2N4R); test: OGA cellular assay: immunocytochemical detection of O-GlcNAcylated proteins (CTD110.6 antibody); format: cell-based; conditions: Homo sapiens, HEK293, 6 h, 6 hours incubation; for Emax: maximum = Thiamet G 200 uM; for EC50: read-out: Cellular hOGA, pEC50 (converted)
Method in brief: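 Cells seeded 2 days ahead in low-glucose assay medium and exposed to compounds for 6 h at 0.2% DMSO, then PFA-fixed and immunostained. Signal is 488 nm intensity from imaging (9 fields/well), with Hoechst nuclei counts as a toxicity check. IC50 from non-linear regression, with 200 uM Thiamet G per plate as maximum inhibition.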

| Emax [1] | IC50 [1] | SMILES | Emax [2] | EC50 [2] |
| --- | --- | --- | --- | --- |
| 103% | 1.55 nM | Cc1cc(C(F)(F)F)cc(C)c1Nc1nccc2c1ccn2CC(F)(F)C(C)C [Compound 176] | 101% | 5.5 nM |
| 101% | 1.12 nM | Cc1cc(-c2cnn(C)c2)cc(C)c1Nc1nccc2c1ccn2CC(F)(F)C(C)C [Compound 178] | 103% | 2.95 nM |
| 102% | 2.04 nM | Cc1cc(C)c(Nc2nccc3c2ccn3CC(F)(F)C(C)C)c(OC(F)F)n1 [Compound 179] | 80.9% | 20.4 nM |
| 102% | 2.24 nM | Cc1cc(C(F)(F)F)nc(C)c1Nc1nccc2c1ccn2CC(F)(F)C(C)C [Compound 185] | 99.8% | 9.77 nM |
| 102% | 4.27 nM | Cc1cc(F)cc(F)c1Nc1nccc2c1ccn2CC(F)(F)C(C)C [Compound 186] | 85.9% | 24.5 nM |
| 101% | 1.78 nM | Cc1cc(OC(F)(F)F)cc(C)c1Nc1nccc2c1ccn2CC(F)(F)C(C)C [Compound 187] | 96.4% | 8.71 nM |
| 100% | 1.62 nM | Cc1cc(OC(F)F)nc(C)c1Nc1nccc2c1ccn2CC(F)(F)C(C)C [Compound 188] | 89.1% | ~4.37 nM |
| 100% | 1.05 nM | Cc1cc2cnn(C)c2c(C)c1Nc1nccc2c1ccn2CC(F)(F)C(C)C [Compound 189] | 101% | 3.16 nM |
| 104% | 7.76 nM | Cc1cncc(C(F)(F)F)c1Nc1nccc2c1ccn2CCC1CC1 [Compound 194] | 67.9% | 79.4 nM |
| 104% | 1.51 nM | CC(C)C(F)(F)Cn1ccc2c(Nc3c(Cl)cccc3Cl)nccc21 [Compound 196] | 91.7% | 8.51 nM |
| 104% | 4.9 nM | Cc1ccnc(C(F)(F)F)c1Nc1nccc2c1ccn2CCC1CC1 [Compound 197] | 86.3% | 56.2 nM |
| 103% | 23.4 nM | FC(F)(F)CCn1ccc2c(Nc3c(Cl)cccc3Cl)nccc21 [Compound 200] | 70.1% | 513 nM |
| 101% | 3.09 nM | Cc1ccnc(C)c1Nc1nccc2c1ccn2CC(F)(F)C(C)C [Compound 202] | 88.1% | 3.63 nM |
| 101% | 57.5 nM | Cc1ccnc(C)c1Nc1nccc2c1ccn2CC1(F)CC1 [Compound 204] | 76.1% | 269 nM |
| 98.2% | 3.02 nM | Cc1ccnc(C(C)(C)F)c1Nc1nccc2c1ccn2CC(C)(F)F [Compound 205] | 88.6% | 9.55 nM |

Further lines, the compound ahead of its results:

| SMILES | Emax [1] | IC50 [1] | Emax [2] | EC50 [2] |
| --- | --- | --- | --- | --- |
| Cn1cnc(-n2ccc3c(Nc4c(Cl)cccc4Cl)nccc32)c1 [Compound 167] | 102% | 17 nM | 81.9% | ~224 nM |
| Clc1cccc(Cl)c1Nc1nccc2c1ccn2Cc1ncco1 [Compound 169] | 104% | 12 nM | 67.5% | 550 nM |
| Cc1cc(F)cc(C)c1Nc1nccc2c1ccn2CC1CC(F)(F)C1 [Compound 170] | 100% | 27.5 nM | 78.6% | 83.2 nM |
| Cc1cc(F)cc(C(C)C)c1Nc1nccc2c1ccn2CC1CC(F)(F)C1 [Compound 171] | 103% | 6.03 nM | 73.8% | 38.9 nM |
| Clc1cccc(Cl)c1Nc1nccc2c1ccn2Cc1ccon1 [Compound 172] | 102% | 3.39 nM | 80.8% | 70.8 nM |
| Cc1cc(Cl)cc(S(C)(=O)=O)c1Nc1nccc2c1ccn2CC1CC(F)(F)C1 [Compound 173] | 101% | 23.4 nM | 88.5% | 158 nM |
| Cc1cccc(S(C)(=O)=O)c1Nc1nccc2c1ccn2CC1CC(F)(F)C1 [Compound 174] | 99.3% | 12.9 nM | 87% | 93.3 nM |
| Cc1cc2c(c(C)c1Nc1nccc3c1ccn3CC1CC(F)(F)C1)OCCO2 [Compound 175] | 100% | 6.31 nM | 80.1% | 37.2 nM |
| Cc1cnc(-n2ccc3c(Nc4c(Cl)cc(F)cc4Cl)nccc32)o1 [Compound 183] | 95.3% | 501 nM | 13.9% | > 1000 nM |
| Cn1ccc(-n2ccc3c(Nc4c(Cl)cc(F)cc4Cl)nccc32)n1 [Compound 184] | 101% | 79.4 nM | 46.5% | 912 nM |
| Cc1ncnc(C(C)C)c1Nc1nccc2c1ccn2CCC1CC1 [Compound 193] | 102% | 6.31 nM | 89.7% | 112 nM |
| Cc1cccc(S(C)(=O)=O)c1Nc1nccc2c1ccn2CCC1CC1 [Compound 195] | 102% | 1.35 nM | 95.3% | 25.1 nM |
| CCCCn1ccc2c(Nc3c(C)ccc4c3nc(C)n4C)nccc21 [Compound 206] | 101% | 51.3 nM | 63.7% | 661 nM |
| CC(C)=C(F)Cn1ccc2c(Nc3c(C)cc(-c4cnn(C)c4)cc3C)nccc21 [Compound 208] | 101% | 10.2 nM | 90.1% | 72.4 nM |
